From ChEMBL document CHEMBL5375948, “Development and Pharmacochemical Characterization Discover a Novel Brain-Permeable HDAC11-Selective Inhibitor with Therapeutic Potential by Regulating Neuroinflammation in Mice” (J Med Chem, 2023) come the findings set out here.

In test [1] the target is T1, Histone deacetylase 8 (Homo sapiens, UniProt Q9BY41).
T1 sequence (Q9BY41 whole entry): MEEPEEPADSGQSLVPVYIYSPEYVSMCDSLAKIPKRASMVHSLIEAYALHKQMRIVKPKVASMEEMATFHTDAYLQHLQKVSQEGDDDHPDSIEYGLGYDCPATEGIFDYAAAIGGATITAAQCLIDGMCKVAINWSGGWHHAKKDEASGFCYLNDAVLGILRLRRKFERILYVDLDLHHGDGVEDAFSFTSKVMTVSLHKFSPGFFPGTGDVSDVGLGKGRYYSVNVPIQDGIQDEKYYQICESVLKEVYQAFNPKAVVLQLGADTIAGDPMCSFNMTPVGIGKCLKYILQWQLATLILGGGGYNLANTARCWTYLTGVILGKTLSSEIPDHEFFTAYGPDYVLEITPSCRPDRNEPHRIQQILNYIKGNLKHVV
The experiment in a line: Inhibition of recombinant full-length human HDAC8 using FAM-RHKK(Ac)-NH2 as substrate by electrophoretic mobility shift assay. For orientation: Mobility shift assays separate free from complexed probe on a gel.

Test [2] addresses Histone deacetylase 1 (Homo sapiens, UniProt Q13547). The experiment in a line: Inhibition of recombinant full-length human HDAC1 using FITC-H3K27(Ac)-NH2 as substrate by electrophoretic mobility shift assay.
Test [3] concerns the target T2, Polyamine deacetylase HDAC10 (Homo sapiens, UniProt Q969S8).
T2 sequence (Q969S8 whole entry): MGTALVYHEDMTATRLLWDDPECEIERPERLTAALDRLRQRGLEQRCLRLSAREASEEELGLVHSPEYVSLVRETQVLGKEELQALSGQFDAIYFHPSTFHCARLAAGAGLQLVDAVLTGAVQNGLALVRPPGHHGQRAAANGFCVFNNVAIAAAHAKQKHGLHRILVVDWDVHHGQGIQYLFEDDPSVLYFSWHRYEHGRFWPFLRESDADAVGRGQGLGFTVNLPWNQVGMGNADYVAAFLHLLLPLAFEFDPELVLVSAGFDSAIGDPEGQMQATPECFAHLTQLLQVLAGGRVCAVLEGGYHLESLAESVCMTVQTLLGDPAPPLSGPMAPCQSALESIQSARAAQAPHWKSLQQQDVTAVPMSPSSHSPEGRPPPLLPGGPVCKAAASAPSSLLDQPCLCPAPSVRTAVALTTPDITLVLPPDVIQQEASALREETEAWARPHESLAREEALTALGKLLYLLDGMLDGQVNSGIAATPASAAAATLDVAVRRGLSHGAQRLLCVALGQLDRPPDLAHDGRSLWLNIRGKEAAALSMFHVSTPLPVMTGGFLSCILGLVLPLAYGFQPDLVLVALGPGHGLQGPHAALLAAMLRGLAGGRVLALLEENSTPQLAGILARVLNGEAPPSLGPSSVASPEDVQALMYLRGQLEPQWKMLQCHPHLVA
The test is described as follows: Inhibition of recombinant full-length human HDAC10 using FITC-H3K27(Ac)-NH2 as substrate by electrophoretic mobility shift assay.

Test [4] concerns the target Histone deacetylase 4 (Homo sapiens, UniProt P56524). The test is described as follows: Inhibition of recombinant full-length human HDAC4 using FAM-RHKK (trifluor-Ac)-NH2 as substrate by electrophoretic mobility shift assay.
The target of test [5] is Histone deacetylase 3 (Homo sapiens, UniProt O15379).
Chain of Histone deacetylase 3 (O15379 whole entry): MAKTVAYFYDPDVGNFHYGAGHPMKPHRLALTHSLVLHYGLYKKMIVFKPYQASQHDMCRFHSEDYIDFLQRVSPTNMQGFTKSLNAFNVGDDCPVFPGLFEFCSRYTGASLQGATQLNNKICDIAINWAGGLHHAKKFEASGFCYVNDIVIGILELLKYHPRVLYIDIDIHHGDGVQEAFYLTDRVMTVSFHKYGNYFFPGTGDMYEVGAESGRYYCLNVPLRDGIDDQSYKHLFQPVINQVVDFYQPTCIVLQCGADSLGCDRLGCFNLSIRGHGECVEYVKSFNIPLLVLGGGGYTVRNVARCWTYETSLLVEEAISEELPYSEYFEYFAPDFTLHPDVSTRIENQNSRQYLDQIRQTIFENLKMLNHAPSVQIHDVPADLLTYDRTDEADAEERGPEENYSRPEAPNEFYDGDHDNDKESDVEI
Description: Inhibition of recombinant full-length human HDAC3 using FAM-RHKK(Ac)-NH2 as substrate by electrophoretic mobility shift assay
Test [6] has as its target T3, Histone deacetylase 11 (Homo sapiens, UniProt Q96DB2).
T3 sequence (Q96DB2 whole entry): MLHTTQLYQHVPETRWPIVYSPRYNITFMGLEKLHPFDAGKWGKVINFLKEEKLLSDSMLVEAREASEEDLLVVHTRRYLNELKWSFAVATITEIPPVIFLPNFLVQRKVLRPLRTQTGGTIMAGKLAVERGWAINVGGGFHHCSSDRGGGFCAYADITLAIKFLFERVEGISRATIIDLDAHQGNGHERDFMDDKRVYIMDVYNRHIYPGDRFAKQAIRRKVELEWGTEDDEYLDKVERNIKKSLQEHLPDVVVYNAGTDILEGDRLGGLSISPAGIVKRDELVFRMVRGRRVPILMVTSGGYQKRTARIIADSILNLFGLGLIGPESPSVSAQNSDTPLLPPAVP
The test is described as follows: Inhibition of recombinant full-length human HDAC11 using FAM-RHKK (trifluor-Ac)-NH2 as substrate by electrophoretic mobility shift assay.

In test [7] the target is Histone deacetylase 2 (Homo sapiens, UniProt Q92769). The experiment in a line: Inhibition of recombinant full-length human HDAC2 using FITC-H3K27(Ac)-NH2 as substrate by electrophoretic mobility shift assay.
Chain of Histone deacetylase 2 (Q92769 whole entry): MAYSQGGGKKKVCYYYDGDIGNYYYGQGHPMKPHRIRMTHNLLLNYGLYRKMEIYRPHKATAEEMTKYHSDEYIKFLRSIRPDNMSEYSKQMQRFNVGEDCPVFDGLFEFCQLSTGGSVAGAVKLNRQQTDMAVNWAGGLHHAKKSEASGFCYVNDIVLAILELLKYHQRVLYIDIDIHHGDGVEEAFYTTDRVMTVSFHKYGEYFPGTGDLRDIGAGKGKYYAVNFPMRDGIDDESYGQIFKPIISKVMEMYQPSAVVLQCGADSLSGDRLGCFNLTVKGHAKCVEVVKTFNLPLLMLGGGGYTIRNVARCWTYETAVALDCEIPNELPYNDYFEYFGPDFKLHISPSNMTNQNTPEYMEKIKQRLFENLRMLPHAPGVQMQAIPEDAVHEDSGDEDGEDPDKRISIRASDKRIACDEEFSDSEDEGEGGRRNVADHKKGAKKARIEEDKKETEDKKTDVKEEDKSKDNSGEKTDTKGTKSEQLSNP
Test [8] deals with Histone deacetylase 9 (Homo sapiens, UniProt Q9UKV0). The test is described as follows: Inhibition of recombinant full-length human HDAC9 using FAM-RHKK (trifluor-Ac)-NH2 as substrate by electrophoretic mobility shift assay.
Chain of Histone deacetylase 9 (Q9UKV0 whole entry): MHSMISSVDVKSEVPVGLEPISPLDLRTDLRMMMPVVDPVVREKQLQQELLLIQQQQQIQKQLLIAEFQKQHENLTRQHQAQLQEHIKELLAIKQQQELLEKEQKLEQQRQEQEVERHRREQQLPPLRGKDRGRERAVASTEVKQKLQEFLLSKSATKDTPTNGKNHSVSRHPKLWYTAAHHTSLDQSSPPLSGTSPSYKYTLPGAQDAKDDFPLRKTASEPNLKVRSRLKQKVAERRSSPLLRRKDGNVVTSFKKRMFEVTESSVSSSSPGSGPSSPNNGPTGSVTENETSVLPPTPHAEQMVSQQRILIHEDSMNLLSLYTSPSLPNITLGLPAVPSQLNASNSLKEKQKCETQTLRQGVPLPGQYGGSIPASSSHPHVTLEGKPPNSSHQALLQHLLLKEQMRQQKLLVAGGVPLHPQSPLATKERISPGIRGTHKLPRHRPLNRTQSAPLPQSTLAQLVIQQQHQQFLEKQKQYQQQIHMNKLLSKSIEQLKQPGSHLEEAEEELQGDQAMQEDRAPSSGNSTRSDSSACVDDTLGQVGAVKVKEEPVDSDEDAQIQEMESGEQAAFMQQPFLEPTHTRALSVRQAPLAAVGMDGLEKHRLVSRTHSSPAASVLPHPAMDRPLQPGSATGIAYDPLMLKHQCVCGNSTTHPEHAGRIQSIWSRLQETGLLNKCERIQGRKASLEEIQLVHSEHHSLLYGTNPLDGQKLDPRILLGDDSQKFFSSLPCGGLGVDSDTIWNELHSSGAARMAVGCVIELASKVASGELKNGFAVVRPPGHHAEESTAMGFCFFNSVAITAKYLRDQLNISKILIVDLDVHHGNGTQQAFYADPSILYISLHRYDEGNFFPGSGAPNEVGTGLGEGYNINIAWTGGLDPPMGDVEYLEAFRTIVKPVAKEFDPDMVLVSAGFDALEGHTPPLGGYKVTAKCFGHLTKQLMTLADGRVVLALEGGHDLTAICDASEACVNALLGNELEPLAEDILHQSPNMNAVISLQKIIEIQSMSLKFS
The target of test [9] is T4, Histone deacetylase 7 (Homo sapiens, UniProt Q8WUI4).
T4 sequence (Q8WUI4 whole entry): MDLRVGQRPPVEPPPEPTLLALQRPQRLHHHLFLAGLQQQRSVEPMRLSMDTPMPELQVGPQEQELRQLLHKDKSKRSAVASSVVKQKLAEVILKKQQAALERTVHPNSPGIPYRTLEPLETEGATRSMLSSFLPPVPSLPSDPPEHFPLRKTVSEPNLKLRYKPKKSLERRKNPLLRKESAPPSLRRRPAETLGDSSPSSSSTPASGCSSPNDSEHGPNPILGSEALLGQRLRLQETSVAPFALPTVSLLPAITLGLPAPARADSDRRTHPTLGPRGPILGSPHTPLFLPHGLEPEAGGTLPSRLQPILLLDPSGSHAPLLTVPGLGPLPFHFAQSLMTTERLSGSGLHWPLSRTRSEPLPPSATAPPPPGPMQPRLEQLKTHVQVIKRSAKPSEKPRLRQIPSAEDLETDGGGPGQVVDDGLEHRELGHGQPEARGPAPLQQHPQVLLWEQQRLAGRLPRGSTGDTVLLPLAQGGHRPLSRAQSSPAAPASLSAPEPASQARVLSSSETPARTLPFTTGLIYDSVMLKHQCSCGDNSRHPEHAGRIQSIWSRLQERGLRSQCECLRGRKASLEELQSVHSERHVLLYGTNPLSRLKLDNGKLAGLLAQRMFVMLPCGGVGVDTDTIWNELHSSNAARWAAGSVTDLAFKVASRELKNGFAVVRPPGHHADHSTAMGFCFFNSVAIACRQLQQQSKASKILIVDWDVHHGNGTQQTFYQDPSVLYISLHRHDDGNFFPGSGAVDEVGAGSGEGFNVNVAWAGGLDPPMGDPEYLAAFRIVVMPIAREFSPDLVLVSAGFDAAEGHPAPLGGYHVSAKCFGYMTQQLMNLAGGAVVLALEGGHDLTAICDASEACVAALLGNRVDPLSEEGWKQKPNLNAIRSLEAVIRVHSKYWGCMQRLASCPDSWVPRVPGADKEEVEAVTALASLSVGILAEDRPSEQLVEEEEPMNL
The test is described as follows: Inhibition of recombinant full-length human HDAC7 using FAM-RHKK (trifluor-Ac)-NH2 as substrate by electrophoretic mobility shift assay.

Test [10] has as its target Histone deacetylase 5 (Homo sapiens, UniProt Q9UQL6). The experiment in a line: Inhibition of recombinant full-length human HDAC5 using FAM-RHKK (trifluor-Ac)-NH2 as substrate by electrophoretic mobility shift assay.
Test [11] deals with T5, Protein deacetylase HDAC6 (Homo sapiens, UniProt Q9UBN7).
T5 sequence (Q9UBN7 whole entry): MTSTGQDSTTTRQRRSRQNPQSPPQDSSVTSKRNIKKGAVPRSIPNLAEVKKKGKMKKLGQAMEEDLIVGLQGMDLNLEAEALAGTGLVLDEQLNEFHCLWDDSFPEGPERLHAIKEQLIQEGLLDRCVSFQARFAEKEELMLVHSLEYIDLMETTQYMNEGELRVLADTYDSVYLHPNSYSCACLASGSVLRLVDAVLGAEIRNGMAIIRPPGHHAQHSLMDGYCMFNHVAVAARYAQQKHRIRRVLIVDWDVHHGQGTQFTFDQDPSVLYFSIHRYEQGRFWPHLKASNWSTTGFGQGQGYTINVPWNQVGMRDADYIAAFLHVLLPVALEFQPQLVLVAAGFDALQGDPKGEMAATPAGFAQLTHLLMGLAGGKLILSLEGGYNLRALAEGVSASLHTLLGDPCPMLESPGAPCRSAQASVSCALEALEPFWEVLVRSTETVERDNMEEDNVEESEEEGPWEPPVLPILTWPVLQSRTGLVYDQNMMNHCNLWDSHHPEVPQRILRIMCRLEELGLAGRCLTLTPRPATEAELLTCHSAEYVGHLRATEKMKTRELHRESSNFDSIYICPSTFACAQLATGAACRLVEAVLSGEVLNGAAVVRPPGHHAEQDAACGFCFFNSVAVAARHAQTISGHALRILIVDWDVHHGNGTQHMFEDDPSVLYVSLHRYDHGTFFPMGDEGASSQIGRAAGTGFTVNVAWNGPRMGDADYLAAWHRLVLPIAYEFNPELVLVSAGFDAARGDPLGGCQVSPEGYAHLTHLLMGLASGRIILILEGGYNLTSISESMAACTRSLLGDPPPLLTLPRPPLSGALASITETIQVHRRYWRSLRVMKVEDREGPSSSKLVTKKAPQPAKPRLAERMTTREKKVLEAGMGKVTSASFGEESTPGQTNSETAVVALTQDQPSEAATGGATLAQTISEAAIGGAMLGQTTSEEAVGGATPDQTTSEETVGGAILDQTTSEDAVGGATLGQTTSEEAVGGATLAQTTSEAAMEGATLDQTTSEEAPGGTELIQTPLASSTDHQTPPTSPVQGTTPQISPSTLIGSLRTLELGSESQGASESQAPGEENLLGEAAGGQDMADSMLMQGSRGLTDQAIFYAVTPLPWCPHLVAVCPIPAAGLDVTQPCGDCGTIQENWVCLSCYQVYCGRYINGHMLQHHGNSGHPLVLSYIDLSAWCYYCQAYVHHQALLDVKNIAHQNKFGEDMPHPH
The experiment in a line: Inhibition of recombinant full-length human HDAC6 using FAM-RHKK(Ac)-NH2 as substrate by electrophoretic mobility shift assay.

Usually IC50 stands for the concentration that gives 50% inhibition.

Each structure is given as a SMILES string.

Chain of Histone deacetylase 5 (Q9UQL6 whole entry): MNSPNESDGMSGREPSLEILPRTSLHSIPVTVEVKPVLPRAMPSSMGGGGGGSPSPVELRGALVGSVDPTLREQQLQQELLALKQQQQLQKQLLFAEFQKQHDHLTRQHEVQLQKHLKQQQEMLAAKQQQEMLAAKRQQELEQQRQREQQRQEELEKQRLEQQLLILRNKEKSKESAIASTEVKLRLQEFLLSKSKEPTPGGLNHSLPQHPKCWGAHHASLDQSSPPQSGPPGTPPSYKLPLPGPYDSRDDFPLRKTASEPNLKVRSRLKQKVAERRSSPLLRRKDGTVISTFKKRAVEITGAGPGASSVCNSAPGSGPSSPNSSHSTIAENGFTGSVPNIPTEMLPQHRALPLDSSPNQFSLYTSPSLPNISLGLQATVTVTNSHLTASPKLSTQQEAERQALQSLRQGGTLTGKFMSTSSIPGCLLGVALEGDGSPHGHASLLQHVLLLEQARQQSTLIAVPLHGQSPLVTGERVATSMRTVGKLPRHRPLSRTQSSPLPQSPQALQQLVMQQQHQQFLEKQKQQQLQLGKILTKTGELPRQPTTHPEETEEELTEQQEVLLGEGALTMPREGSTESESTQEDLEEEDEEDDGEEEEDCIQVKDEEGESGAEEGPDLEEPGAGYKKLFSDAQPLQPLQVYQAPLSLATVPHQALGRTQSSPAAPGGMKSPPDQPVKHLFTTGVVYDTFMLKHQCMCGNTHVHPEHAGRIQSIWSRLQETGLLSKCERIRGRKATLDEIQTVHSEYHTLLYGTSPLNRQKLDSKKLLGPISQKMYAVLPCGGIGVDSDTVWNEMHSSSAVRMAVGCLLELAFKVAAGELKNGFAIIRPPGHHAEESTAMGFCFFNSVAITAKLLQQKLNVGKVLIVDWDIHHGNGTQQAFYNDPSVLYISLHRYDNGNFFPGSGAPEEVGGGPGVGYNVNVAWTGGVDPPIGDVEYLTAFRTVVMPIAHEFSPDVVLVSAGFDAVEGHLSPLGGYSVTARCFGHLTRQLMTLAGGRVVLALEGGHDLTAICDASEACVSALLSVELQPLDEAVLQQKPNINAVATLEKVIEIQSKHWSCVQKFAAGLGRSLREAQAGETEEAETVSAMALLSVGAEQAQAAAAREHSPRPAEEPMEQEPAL
Chain of Histone deacetylase 4 (P56524 whole entry): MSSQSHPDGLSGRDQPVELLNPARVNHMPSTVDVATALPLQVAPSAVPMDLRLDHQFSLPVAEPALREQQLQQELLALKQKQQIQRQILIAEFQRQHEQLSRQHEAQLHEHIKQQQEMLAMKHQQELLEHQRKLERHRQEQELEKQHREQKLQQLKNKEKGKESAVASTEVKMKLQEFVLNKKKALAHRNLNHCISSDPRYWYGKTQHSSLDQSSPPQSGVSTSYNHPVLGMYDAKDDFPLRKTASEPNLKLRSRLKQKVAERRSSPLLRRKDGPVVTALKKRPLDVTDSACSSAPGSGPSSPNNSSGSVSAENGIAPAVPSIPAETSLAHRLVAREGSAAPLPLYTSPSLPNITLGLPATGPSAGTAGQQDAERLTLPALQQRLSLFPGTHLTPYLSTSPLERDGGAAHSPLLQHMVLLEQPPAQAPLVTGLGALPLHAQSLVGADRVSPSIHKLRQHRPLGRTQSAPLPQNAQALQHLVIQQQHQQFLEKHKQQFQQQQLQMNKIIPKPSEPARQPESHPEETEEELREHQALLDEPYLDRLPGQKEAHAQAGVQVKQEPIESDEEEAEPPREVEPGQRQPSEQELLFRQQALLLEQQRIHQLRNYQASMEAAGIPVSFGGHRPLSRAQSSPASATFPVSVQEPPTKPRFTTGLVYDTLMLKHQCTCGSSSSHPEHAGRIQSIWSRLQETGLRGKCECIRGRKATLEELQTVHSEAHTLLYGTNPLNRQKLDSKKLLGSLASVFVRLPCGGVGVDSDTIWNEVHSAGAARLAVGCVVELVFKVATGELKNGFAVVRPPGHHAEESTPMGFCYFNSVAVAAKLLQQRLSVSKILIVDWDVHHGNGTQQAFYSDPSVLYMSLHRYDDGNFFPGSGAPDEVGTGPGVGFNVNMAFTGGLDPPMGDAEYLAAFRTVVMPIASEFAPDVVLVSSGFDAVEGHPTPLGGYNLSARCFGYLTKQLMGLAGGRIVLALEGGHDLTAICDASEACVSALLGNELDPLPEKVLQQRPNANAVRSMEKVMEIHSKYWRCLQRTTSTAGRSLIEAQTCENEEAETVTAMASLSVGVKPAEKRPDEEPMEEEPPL
Chain of Histone deacetylase 1 (Q13547 whole entry): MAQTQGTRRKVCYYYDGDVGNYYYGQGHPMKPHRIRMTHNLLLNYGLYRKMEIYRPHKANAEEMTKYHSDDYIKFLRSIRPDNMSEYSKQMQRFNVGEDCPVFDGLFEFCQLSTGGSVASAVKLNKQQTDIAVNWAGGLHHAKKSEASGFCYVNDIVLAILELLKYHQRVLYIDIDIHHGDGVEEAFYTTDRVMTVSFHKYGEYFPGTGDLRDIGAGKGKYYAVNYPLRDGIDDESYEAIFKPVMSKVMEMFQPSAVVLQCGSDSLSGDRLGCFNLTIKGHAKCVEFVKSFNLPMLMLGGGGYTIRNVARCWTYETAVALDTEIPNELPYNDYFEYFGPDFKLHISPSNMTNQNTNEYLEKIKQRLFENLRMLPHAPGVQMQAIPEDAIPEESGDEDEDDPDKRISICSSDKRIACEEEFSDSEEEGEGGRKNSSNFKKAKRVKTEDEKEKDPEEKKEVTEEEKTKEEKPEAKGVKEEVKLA

`Cc1cc(Cn2ccc3cc(C(=O)NCC45C[C@H]6C[C@@H](C4)C[C@@H](C5)C6)ccc32)ccc1C(=O)NO`: the IC50 was 2060 nM in test [1]; > 10000 nM in test [2]; > 10000 nM in [3]; > 10000 nM in [4]; > 10000 nM in test [5]; 350 nM in [6]. In addition, in [7], the IC50 was > 10000 nM.
Take `O=C(NCC12C[C@H]3C[C@@H](C1)C[C@@H](C2)C3)c1ccc2c(ccn2Cc2ccc(C(=O)NO)c(Br)c2)c1`: the IC50 in test [8] was 9310 nM; in test [2], 7320 nM; in test [3], 8970 nM; in test [5], 2230 nM; in test [7], > 10000 nM.
As to `CCOc1cc(Cn2ccc3cc(C(=O)NCC45C[C@H]6C[C@@H](C4)C[C@@H](C5)C6)ccc32)ccc1C(=O)NO`, the IC50 in [8] was > 10000 nM; in test [1], > 10000 nM; in test [9] it was 4030 nM; in [2] it was > 10000 nM; in test [3], > 10000 nM; in [4], > 10000 nM. The results for the IC50 in test [6] and in [7] were 250 nM and > 10000 nM, respectively.
For `COc1cc(C(=O)NCC23CC4CC(CC(C4)C2)C3)ccc1C(=O)NO`, the IC50 in [6] came out at 8890 nM.
For the compound `O=C(NO)c1ccc(Cn2ccc3cc(C(=O)NCC45C[C@H]6C[C@@H](C4)C[C@@H](C5)C6)ccc32)cc1`, the IC50 is 5250 nM in [8]; 1950 nM in test [1]; 880 nM in [2]; > 10000 nM in test [10]; > 10000 nM in test [3]; 1090 nM in [4]. Also, the figures for the IC50 in [5], in test [6] and in [7] were 980 nM, 480 nM and 1900 nM, respectively.
Regarding `COc1cc(CN(C)CC23CC4CC(CC(C4)C2)C3)ccc1C(=O)NO`, the IC50 in test [11] and in test [6] was > 10000 nM each time.
Consider `O=C(NCC12C[C@H]3C[C@@H](C1)C[C@@H](C2)C3)c1ccc2c(ccn2Cc2ccc(C(=O)NO)c(O)c2)c1`, for which the IC50 in test [2] is > 10000 nM; in test [10] it was 7250 nM; in test [3] it was > 10000 nM; in test [5] it was 8120 nM; in [7], > 10000 nM.
Consider `O=C(NCC12C[C@H]3C[C@@H](C1)C[C@@H](C2)C3)c1ccc2c(ccn2Cc2ccc(C(=O)NO)c(F)c2)c1`, for which the IC50 came out at 600 nM in [3], 180 nM in test [5], 79 nM in test [6] and 3400 nM in [7].
Turning to `O=C(NO)c1ccc(Cn2ccc3cc(C(=O)NCC45C[C@H]6C[C@@H](C4)C[C@@H](C5)C6)ccc32)c(F)c1`, the IC50 was 2090 nM in test [8]; 190 nM in [2]; > 10000 nM in [10]; 230 nM in test [3]; 1120 nM in [4]; 690 nM in test [5]. The IC50 in test [11] was determined as 8 nM; in test [7], 1020 nM.
For the compound `COc1cc(CN(C)CCC23CC4CC(CC(C4)C2)C3)ccc1C(=O)NO`, the results for the IC50 in [11] and in test [6] were > 10000 nM and 4210 nM, respectively.
As for `CCCNNC(=O)c1ccc(Cn2ccc3cc(C(=O)NCC45C[C@H]6C[C@@H](C4)C[C@@H](C5)C6)ccc32)cc1`, in test [6], the IC50 was 2610 nM.
On to `COc1cc(C(=O)NO)ccc1Cn1ccc2cc(C(=O)NCC34C[C@H]5C[C@@H](C3)C[C@@H](C4)C5)ccc21`, for which the IC50 in [8] was 2840 nM; in [1] it was 160 nM; in test [2], > 10000 nM; in [10], 1880 nM; in test [3], > 10000 nM; in [4], 3040 nM. In addition, the IC50 was 1330 nM in test [5], 640 nM in [11], 93 nM in test [6] and > 10000 nM in [7].
